Data: US6087401A, “Cyclopentenones, process for preparing the same, and the use thereof” (Takara Shuzo Co., Ltd., priority 1996, dated 2000)
Values after ≈ are worked out from the molar mass of the structure shown. Like-named read-outs stand apart in the source and are kept apart here.

Legend:
[1] = tested on: HL-60 cells; experiment: viable HL-60 cell number after incubation; format: cell-based, human; details: sixth day
[2] = tested on: Escherichia coli HB101 (ATCC 33694); experiment: growth turbidity, microorganism (13); format: cell-based; details: 8 h, control 222
From the text: (§1) They were testing microorganism (13): Escherichia coli HB101 (ATCC 33694); testing microorganism (14): Salmonella typhimurium LT-2 (ATCC 27106); testing microorganism (15): Pseudomonas aeruginosa (IFO 3080); testing microorganism (16): Staphylococcus aureus 3A (NCTC 8319); testing microorganism (17): Bacillus subtilis (IFO 3034); and testing microorganism (18): Streptococcus mutans (GS5; stored at National Institute of Health).
(§2) The testing microorganisms were subjected to a seed culture overnight in an L-broth (1% tryptone, 0.5% yeast extract and […]; pH 7.0). The seed culture (5 μl) was inoculated to a medium to which 25-200 μg/ml of cyclopentenone was added to 5 ml of L-both and also to a medium to which nothing was added and a shake incubation was conducted at 37° C. to measure the growth. At the initiation of the incubation and also at eight hours thereafter, turbidity of the culture was measured using a Fuji Digital Turbidimeter (sold from Fuji Kogyo KK; manufactured by Akiyama Denki Seisakusho) under the condition that the adjusted scale was 82.3 and the growth of the tested microorganism was measured from the value (growth turbidity) obtained by deducting the turbidity at the initiation of incubation from that after eight hours. Incidentally, in the case of the testing microorganism (18), a brain heart infusion was used instead of L-broth.

[3] = tested on: Pseudomonas aeruginosa (IFO 3080); experiment: growth turbidity, microorganism (15); format: cell-based; details: 8 h, control 239
From the text: as §1, §2

[4] = tested on: Staphylococcus aureus 3A (NCTC 8319); experiment: growth turbidity, microorganism (16); format: cell-based; details: 8 h, control 243
From the text: as §1, §2

[5] = tested on: Streptococcus mutans (GS5); experiment: growth turbidity, microorganism (18); format: cell-based; details: 8 h, control 140
From the text: as §1, §2

[6] = tested on: Lactobacillus fructivorans (IFO 13118); experiment: antibacterial activity to hiochi bacteria, microorganism A; format: cell-based; details: five days; for Growth Turbidity (OD600): control 0.96
Description: (§3) The testing microorganism was subjected to a stationary incubation for five days in an SI medium (Japan Brewery Association) containing 10% of ethanol to give a seed microorganism. The seed microorganism (0.1%) was added to 100 ml of 10% ethanol-containing SI medium to which the cyclopentenone was added in an amount of 0, 25, 50, 75 or 100 μg/ml (in terms of final concentration), then a stationary incubation was conducted for five days and the turbidity was measured. In measuring the turbidity, the value of OD600 was measured using an absorbance meter. A value of OD600 of the medium to which no testing microorganism was inoculated was deducted from the above value and this (growth turbidity) was used for the growth of the tested microorganism.
(§4) The tested microorganisms were as follows. Thus, Lactobacillus fructivorans (IFO 13118) (testing microorganism A), Lactobacillus fructivorans (JCM 1198) (testing microorganism B) and Lactobacillus homohiochii (IFO 13120) (testing microorganism C) as true hiochi bacteria while Lactobacillus rhamnosus (IFO 3532) (testing microorganism D) was used as hiochi lactobacteria.

[7] = tested on: Lactobacillus fructivorans (JCM 1198); experiment: antibacterial activity to hiochi bacteria, microorganism B; format: cell-based; details: five days; for Growth Turbidity (OD600): control 2.03
Description: as §3, §4

[8] = tested on: Lactobacillus rhamnosus (IFO 3532); experiment: antibacterial activity to hiochi lactobacteria, microorganism D; format: cell-based; details: five days; for Growth Turbidity (OD600): control 0.35
Description: as §3, §4

[9] = tested on: Legionella pneumophila (isolated from a washing of human bronchus); format: cell-based; details: 12 ppm, common logarithm
[10] = tested on: Legionella pneumophila (isolated from bathtub water of hot spring); format: cell-based; details: 12 ppm, common logarithm
[11] = tested on: Helicobacter pylori strains NCTC 11637 (ATCC 43504), 206 and 3401; experiment: MIC against Helicobacter pylori strains; format: cell-based; details: pH 6.0, 37° C., 3-4 days, all strains tested, read-out: MIC (90% or more inhibition)
Description: (4) As to Helicobacter pylori strains, a standard strain NCTC 11637 (ATCC 43504) and clinically isolated strains from human stomach (206 and 3401; both stored at Department of Bacteriology, Hyogo Medical College) were used. Each strain was subjected to a shake incubation at 37° C. under a slightly aerophilic condition using an Aneropack Campiro (manufactured by Mitsubishi Gas Chemical) in a Brucella Broth Medium (manufactured by BBL) containing 7% of horse serum (manufactured by Bio Whittaker). The microorganism in a logarithmic growth phase was diluted with a Brucella Broth and used for the test. A 24-well plate (manufacturedby Falcon) was used for the experiments. The cyclopentenone was charged at the rate of 0.1 ml (1,000 μg)/well, subjected to a two-step dilution using PBS and immobilized by adding 0.9 ml/well of a medium [a Brucella agar medium (pH 6.0) containing 7% of horse serum (manufactured by BBL)]. The Brucella agar medium was previously adjusted to pH 6.0 with HCl and was used for the experiments. Each microorganism was inoculated at the rate of about 10^4 /50 μl/well. […] The amount of a sample (μg/ml) showing 90% or more inhibition was defined as the MIC.

[12] = tested on: Sarcoma-180; experiment: life-prolonging effect, intraperitoneal Sarcoma-180; format: in vivo, female mice of ICR strain; details: intraperitoneal tumor
[13] = 25 days
[14] = stability of the cyclopentenone in solution (TLC)

O=C1C=CC(O)C1O (stereo not shown) [the cyclopentenone, 4,5-dihydroxy-2-cyclopenten-1-one]
viable cells ([1]; 10 μg/ml): no viable cell was found
inhibition at 0.01 µg/mL ([1]; Homo sapiens, HL-60, 0.01 μg/ml, vs control, read-out: cell growth inhibition): ~40%
inhibition at 0.1 µg/mL ([1]; Homo sapiens, HL-60, 0.1 μg/ml, vs control, read-out: cell growth inhibition): ~55%
inhibition at 1 µg/mL ([1]; Homo sapiens, HL-60, 1 μg/ml, vs control, read-out: cell growth inhibition): ~90%
Growth Turbidity ([2]; 25 μg/ml): 0
Growth Turbidity ([2]; 50 μg/ml): 0
Growth Turbidity ([2]; 100 μg/ml): 0
Growth Turbidity ([2]; 200 μg/ml): 0
Growth Turbidity ([3]; 25 μg/ml): 2
Growth Turbidity ([3]; 50 μg/ml): 0
Growth Turbidity ([3]; 100 μg/ml): 0
Growth Turbidity ([3]; 200 μg/ml): 0
Growth Turbidity ([4]; 25 μg/ml): 203
Growth Turbidity ([4]; 50 μg/ml): 158
Growth Turbidity ([4]; 100 μg/ml): 0
Growth Turbidity ([4]; 200 μg/ml): 0
Growth Turbidity ([5]; 25 μg/ml): 133
Growth Turbidity ([5]; 50 μg/ml): 130
Growth Turbidity ([5]; 100 μg/ml): 34
Growth Turbidity ([5]; 200 μg/ml): 6
Growth Turbidity (OD600) ([6]; 25 μg/ml): 0.17
Growth Turbidity (OD600) ([6]; 50 μg/ml): 0.02
Growth Turbidity (OD600) ([6]; 75 μg/ml): 0
MIC ([6]; Fructilactobacillus fructivorans, IFO13118, 120 h, read-out: concentration completely inhibiting growth): 75 µg/mL (≈ 657 µM)
Growth Turbidity (OD600) ([7]; 25 μg/ml): 0.01
Growth Turbidity (OD600) ([7]; 50 μg/ml): 0
Growth Turbidity (OD600) ([7]; 75 μg/ml): 0
MIC ([7]; Fructilactobacillus fructivorans, JCM1198, 120 h, read-out: concentration completely inhibiting growth): 50 µg/mL (≈ 438 µM)
Growth Turbidity (OD600) ([8]; 25 μg/ml): 0.04
Growth Turbidity (OD600) ([8]; 50 μg/ml): 0.01
Growth Turbidity (OD600) ([8]; 75 μg/ml): 0
MIC ([8]; Lacticaseibacillus rhamnosus, IFO3532, 120 h, read-out: concentration completely inhibiting growth): 75 µg/mL (≈ 657 µM)
Numbers of Tested Microorganism Cells after Incubation ([9]; 16 h, 0 ppm 6.9): 5.7 log10 CFU/ml
Numbers of Tested Microorganism Cells after Incubation ([9]; 96 h, 0 ppm 8.7): 8.3 log10 CFU/ml
Numbers of Tested Microorganism Cells after Incubation ([10]; 16 h, 0 ppm 7.4): 6.1 log10 CFU/mL
Numbers of Tested Microorganism Cells after Incubation ([10]; 96 h, 0 ppm 8.6): 8.6 log10 CFU/mL
MIC [11]: 32 µg/mL (≈ 280 µM)
increase in life span [12]: 148%
mean survival days ([12]; control 22.6 days): 33.4 days
storage stability (amount of the cyclopentenone) ([13]; 4° C. and -20° C.): almost stable
storage stability (amount of the cyclopentenone) ([13]; 37° C.): some decrease
stability ([14]; 25 mM in 10 mM tris (pH 10), room temperature, immediately after dissolution): rapid decomposition
stability ([14]; in water, 121° C., 30 minutes): most of the cyclopentenone was left nondecomposed
